Source: paper PMC6582431 (Chemmedchem, 2018)

Key:
FAAH [1] = target: T1, FAAH (Mus musculus, UniProt O08914); assay: In vivo FAAH inhibition, brain, after oral administration to mice
T1 sequence (O08914 1-579): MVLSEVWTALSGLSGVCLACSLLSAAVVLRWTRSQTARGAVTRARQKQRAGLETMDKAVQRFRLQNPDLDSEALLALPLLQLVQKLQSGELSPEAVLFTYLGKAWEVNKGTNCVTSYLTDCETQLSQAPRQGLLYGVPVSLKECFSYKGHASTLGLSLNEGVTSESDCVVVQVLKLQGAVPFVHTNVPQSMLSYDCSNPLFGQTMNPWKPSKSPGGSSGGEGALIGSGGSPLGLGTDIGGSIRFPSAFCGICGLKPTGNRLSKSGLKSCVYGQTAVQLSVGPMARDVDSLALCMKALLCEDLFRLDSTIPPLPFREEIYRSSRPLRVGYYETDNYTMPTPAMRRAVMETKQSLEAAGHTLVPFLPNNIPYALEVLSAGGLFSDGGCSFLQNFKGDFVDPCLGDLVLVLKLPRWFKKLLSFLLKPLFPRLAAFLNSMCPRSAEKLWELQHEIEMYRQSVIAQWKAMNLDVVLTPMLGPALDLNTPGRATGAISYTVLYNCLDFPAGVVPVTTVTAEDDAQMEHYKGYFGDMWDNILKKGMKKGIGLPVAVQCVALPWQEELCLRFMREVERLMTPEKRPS

[2] = multiple ascending doses up to 20 mg; cited from earlier work
carboxylesterases (CEs) = assay: CE activity in rat liver microsomes; type: biochemical; conditions: 10 μM in rat liver microsomes; Table 5
[3] = CYP450 metabolic stability, primate liver microsomes; type: in vitro ADME; conditions: 5 μM in liver microsomes, 1 h incubation
[4] = CYP450 metabolic stability, dog liver microsomes; type: in vitro ADME; conditions: 5 μM in liver microsomes, 1 h incubation
[5] = CYP450 metabolic stability, rat liver microsomes; type: in vitro ADME; conditions: 5 μM in liver microsomes, 1 h incubation
[6] = CYP450 metabolic stability, human liver microsomes; type: in vitro ADME; conditions: 5 μM in liver microsomes, 1 h incubation
MAGL = target: T2, MAGL (Rattus norvegicus, UniProt Q8R431); assay: MAGL activity in rat cerebellum cytosol; type: biochemical; conditions: C inhib=100 μM in rat cerebellum cytosol; Table 5
T2 sequence (Q8R431 1-303): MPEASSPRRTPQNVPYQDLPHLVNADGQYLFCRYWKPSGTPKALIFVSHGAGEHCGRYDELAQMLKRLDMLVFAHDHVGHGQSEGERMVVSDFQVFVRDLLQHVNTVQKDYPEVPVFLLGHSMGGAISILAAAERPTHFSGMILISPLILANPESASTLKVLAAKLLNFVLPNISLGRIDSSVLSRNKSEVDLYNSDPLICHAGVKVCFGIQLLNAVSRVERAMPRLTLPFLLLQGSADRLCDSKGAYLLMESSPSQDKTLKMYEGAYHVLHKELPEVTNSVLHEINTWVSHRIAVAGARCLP

FAAH [7] = target: T1, FAAH; assay: In vivo FAAH inhibition, liver, after oral administration to mice
FAAH [8] = target: T3, FAAH (Rattus norvegicus, UniProt P97612); assay: In vitro FAAH activity in rat brain homogenates/membranes; type: biochemical; conditions: 100 nM; rat brain homogenates, 15 min pre-incubation; Table 5
T3 sequence (P97612 1-579): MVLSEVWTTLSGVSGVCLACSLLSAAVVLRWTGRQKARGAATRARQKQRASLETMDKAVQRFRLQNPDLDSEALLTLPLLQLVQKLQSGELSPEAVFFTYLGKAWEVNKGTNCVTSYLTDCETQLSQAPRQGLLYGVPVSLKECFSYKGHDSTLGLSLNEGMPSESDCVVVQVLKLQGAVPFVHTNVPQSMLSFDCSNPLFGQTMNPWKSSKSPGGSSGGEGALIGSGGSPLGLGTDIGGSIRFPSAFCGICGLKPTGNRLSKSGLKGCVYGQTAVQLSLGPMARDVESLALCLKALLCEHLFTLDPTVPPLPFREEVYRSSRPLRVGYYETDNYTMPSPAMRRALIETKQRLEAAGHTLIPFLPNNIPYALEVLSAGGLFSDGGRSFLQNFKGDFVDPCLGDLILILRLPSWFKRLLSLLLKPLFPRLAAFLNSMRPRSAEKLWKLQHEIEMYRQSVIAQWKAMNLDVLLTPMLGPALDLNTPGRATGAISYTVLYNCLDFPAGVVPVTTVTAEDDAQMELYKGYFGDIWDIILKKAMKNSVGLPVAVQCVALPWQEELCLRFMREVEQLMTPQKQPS

[9] = CYP450 metabolic stability, mouse liver microsomes; type: in vitro ADME; conditions: 5 μM in liver microsomes, 1 h incubation
[10] = 0.1 mg kg^−1, mouse, p.o., text b31
[11] = 0.1 mg kg^−1 p.o. in mice, 8 h after administration, Table 5
[12] = 0.1 mg kg^−1 p.o., mice, post-dose

CN(C(=O)n1cnc(-c2ccc[n+]([O-])c2)c1)C1CCCCC1 [Compound 8 l, 3‐(1‐(Cyclohexyl(methyl)carbamoyl)‐1H‐imidazol‐4‐yl)pyridine 1‐oxide]
in vivo FAAH inhibitory activity, brain (FAAH [1]; [10]): > 90 % of control | Brain FAAH activity, percent of control (FAAH [1]; [11]): 8±2% of control | maximal inhibitory effect in the brain (FAAH [1]; 0.1 mg kg^−1 p.o., mice, at 8 h post-dose): > 90% | time of maximal inhibitory effect in the brain (t max) (FAAH [1]; [12]): 8 h | central FAAH inhibition maintained up to 48 h post-administration (FAAH [1]; 0.1 mg kg^−1 p.o., mice, up to 48 h): > 50% | ED50 cerebral FAAH (FAAH [1]; mice, p.o., 0.001 to 3 mg kg^−1, 8 h post-administration): ~27 µg/kg | systemic exposure to anandamide [2]: increased in a dose‐dependent manner | CEs (10 μM), percent of control (carboxylesterases (CEs)): 102±5% of control | CYP450 metabolic stability, Primate, percent of remaining [3]: 88±1% of remaining | CYP450 metabolic stability, Dog, percent of remaining [4]: 94±2% of remaining | CYP450 metabolic stability, Rat, percent of remaining [5]: 91±1% of remaining | CYP450 metabolic stability, Human, percent of remaining [6]: 95±1% of remaining | MAGL (100 μM), percent of control (MAGL): 96±4% of control | in vivo FAAH inhibitory activity, liver (FAAH [7]; [10]): > 90 % of control | Liver FAAH activity, percent of control (FAAH [7]; [11]): 6±2% of control | time of maximum inhibitory effect in the liver (FAAH [7]; [12]): 1 h | ED50 (FAAH [7]; mouse, po, 8 h, read-out: ED50 liver FAAH): 7 µg/kg | inhibition at 0.1 mg/kg (FAAH [7]; mouse, po, read-out: peripheral inhibition of FAAH sustained over the next 7 h): > 90% | FAAH activity, percent of control, 100 nM (FAAH [8]): 85±11% of control | CYP450 metabolic stability, Mouse, percent of remaining [9]: 99±2% of remaining
